pKi: −log10 of the molar value. Calls of active or inactive are those of the source. The rule behind the calls is not given here.
What follows are compounds tested against Ras-related C3 botulinum toxin substrate 1 (Homo sapiens) (UniProt P63000) (assay: analog inhibition of wildtype Rac1 nucleotide loading – biochemical, additional analogs, multiplex bead flow cytometry, SAR follow-up (AID 2040)). Settings: Rac1 GTP binding.

Structure (SMILES) | EC50
O=Nc1c(-c2c(O)[nH]c3c(F)cccc23)[nH]c2ccccc12 | > 30 µM (inactive)
O=Nc1c(-c2c(O)[nH]c3ccccc23)[nH]c2ccccc12 | > 30 µM (inactive)
O=C1C(c2c(O)[nH]c3c(Cl)cccc23)=Nc2ccccc21 | > 30 µM (inactive)
O=C1C(c2c(O)[nH]c3ccc(Br)cc23)=Nc2ccccc21 | inactive
O=C1N=c2ccccc2=C1c1[nH]c(=O)[nH]c1O | inactive
O=Nc1c(-c2c(O)[nH]c3c(Br)cccc23)[nH]c2ccccc12 | > 30 µM (inactive)
O=C1C(c2c(O)[nH]c3c(F)cccc23)=Nc2ccccc21 | inactive
O=C1N=c2ccccc2=C1c1[nH]c(=S)[nH]c1O | inactive
O=C1C(c2c(O)[nH]c3c(Br)cccc23)=Nc2ccccc21 | > 30 µM (inactive)
O=Nc1c(-c2c(O)[nH]c3c(Cl)cccc23)[nH]c2ccccc12 | > 30 µM (inactive)
O=C1C(c2c(O)[nH]c3ccccc23)=Nc2ccccc21 | > 30 µM (inactive)
O=Nc1c(-c2c(O)[nH]c3ccc(Br)cc23)[nH]c2ccccc12 | > 30 µM (inactive)

Same assay, conditions: Rac1 GTP binding, measured here: Ki derived from EC50

Structure (SMILES) | pKi
CSc1ccc(/C=C2/C(C)=C(CC(=O)O)c3cc(F)ccc32)cc1 | 5.29
O=C1C(c2c(O)[nH]c3ccc(Br)cc23)=Nc2ccccc21 | 5.82
O=C1N=c2ccccc2=C1c1[nH]c(=O)[nH]c1O | 6.60
O=C1C(c2c(O)[nH]c3c(F)cccc23)=Nc2ccccc21 | 5.49
O=C1N=c2ccccc2=C1c1[nH]c(=S)[nH]c1O | 6.80
COc1ccc(S(=O)(=O)n2c(N)c(C#N)c(-c3cncc(Br)c3)c2C(=O)c2ccccc2)cc1 | 6.04
COc1cc(-c2c(C#N)c(N)n(S(=O)(=O)c3c(C(C)C)cc(C(C)C)cc3C(C)C)c2C(=O)c2ccccc2)cc(OC)c1OC | 5.15
O=C1Nc2cccc(Br)c2/C1=C1/Cc2ccccc2C1=O | 5.95
